The text below walks through data of US20240173231A1, “COSMETIC SKIN CARE COMPOSITION” (Conopco, Inc., d/b/a UNILEVER, priority 2021, published 2024).

Marks after values point to notes of the source that are not given here.

Common to all, as to assay type: cell-based, human
Experiment [1] concerns procollagen-I. In words: Procollagen type 1 C-peptide (PIP) EIA on media of dermal fibroblasts on soft hydrogel. The settings on record: for Procollagen: day 6; for Effect on procollagen-I synthesis in human dermal fibroblasts, in words: substrates mimicking the biomechanical properties of skin. The method, then: Since YAP activity is highly dependent on substrate rigidity it was necessary to develop and perform assays on substrates with tunable mechanical properties.
Primary human dermal fibroblasts (P3) are plated at 31,579 cells per cm2 into 24-well […] collagen coated hydrogel plates in 1 ml 2% fetal bovine serum in Dulbecco's Modified Eagles Media (DMEM) and maintained 24 hours in a cell culture incubator at 5% carbon dioxide. The cells were washed twice with Dulbecco's Phosphate Buffered Saline then 1 ml of DM EM supplemented with 0.6% fatty acid free bovine serum albumin. The cells were maintained for 24 hours in a cell culture incubator at 5% carbon dioxide.
Two hundred microliter of media was removed from each well. To each well were added 100 ul of 500 ug per ml ascorbic acid in DMEM supplemented with 0.6% fatty acid free bovine serum albumin. Test materials were diluted to 10X final concentration in DMEM supplemented with 0.6% fatty acid free bovine serum albumin or PBS supplemented with 0.1% fatty acid free bovine serum albumin and 100 ul dosed to duplicate wells. The cells/plates were incubated for 3 days at 37° C., 5% CO2 in a cell culture incubator. On day 3 the media was removed from the wells and 900u1 DMEM supplemented with 0.6% fatty acid free bovine serum albumin plus 50 ug/ml ascorbic acid. The treatments were added as described above. On day 6 after the start of treatment remove 100 ul of the media from each well for the determination of the level of procollagen.
The amount of procollagen in the media samples was determined using the Takara Bio Procollagen type 1 C-peptide (PIP) detection EIA assay. The assay was run following the manufacturer's instructions as following—100 ul of the reconstituted antibody-POD conjugate to the wells of the assay for the number required for the media samples and the standard curve. The procollagen standard solution was 2-fold serial diluted using sample diluent to generate a standard curve of 640, 320, 160, 80, 40, 20, 10 and 0 ng/ml procollagen. The media samples were diluted 1/20 with sample diluent. Twenty ul of the standard curve dilutions were added to the wells of the assay plate in duplicate. The 20 ul media dilutions in sample diluent were added to the wells of the assay plate in singlet. The plate was incubated for 3 hours at 37° C., washed 4 times with phosphate buffered saline wash buffer and tapped to remove all residual wash buffer. One hundred ul of substrate solution (TMBZ) was added to each well and incubate 15 minutes. One hundred ul of stop solution was added to each well, the plate shaken to mix and the optical density at 450 nm read in a plate reader. The amount of procollagen in the test samples was calculated from the standard curve values and corrected for the dilution factor and the volume in the well to generate the ng of procollagen in the samples. The amount of procollagen induced by the test materials was compared to the basal media.

In experiment [2] the test system is CRABPII (cellular retinoic acid binding protein II). In words: CRABPII gene expression by TaqMan real time PCR in dermal fibroblasts. As for the experimental part: (§1) Primary human dermal fibroblasts (P3) are plated at 31,579 cells per cm^2 into 6-well 2 kPa hydrogel collagen coated plates in 2 ml 2% fetal bovine serum in Dulbecco's Modified Eagles Media (DMEM) and maintained 24 hours in a cell culture incubator at 5% carbon dioxide. The cells were washed twice with Dulbecco's Phosphate Buffered Saline DPBS) then 1 ml of DMEM supplemented with 0.6% fatty acid free bovine serum albumin (FAF-BSA). The cells were maintained for 24 hours in a cell culture incubator at 5% carbon dioxide. Four hundred ul of media was removed from each well of the plates. Two hundred ul of the YAP active treatments diluted at 10X the desired final concentration plus 1% DMSO were diluted in DMEM supplemented with 0.6% fatty acid free bovine serum albumin. The control wells were treated with two hundred ul of 1% DMSO were diluted in DMEM supplemented with 0.6% fatty acid free bovine serum albumin. Two hundred ul of water-soluble YAP actives diluted at 10X the desired final concentration diluted in DPBS+0.1% FAF-BSA. The controls wells were treated with 200 ul DPBS+0.1% FAF-BSA. The plates were incubated overnight at 37° C. at 5% CO2. In the AM the plates were dosed with the 220 ul of the water-soluble YAP actives in DPBS +0.1% FAF-BSA or the control well with 220 ul DPBS +0.1% FAF-BSA. After 6 hours the media was aspirate from the wells, the cells washed 2X with DPBS and the plate frozen at -80 °C until the RNA was isolated.
700 ul of RLT buffer plus beta-mercaptoethanol was added to each well immediately after removing the plate from the freezer. The plate was placed on an orbital shaker at 500 revolution per minute up for 15 minutes while the buffer thawed and extracted the cells. […] The RNA samples were quantitated on a NanoDrop 800 and quantity access on an Agilent Bio-analyzer. […] The cDNA samples were evaluated for the expression level of select markers using comparative Taqman analysis using 2 ul of the cDNA per reaction. […]
An independent experiment was conducted using cell culture and RNA isolation methods described in Example 2 to further elucidate the retinyl propionate+ORG synergy (as observed in Table 4) by analyzing a well-described marker of a retinoid activity CRABPII (cellular retinoic acid binding protein II). […] Then, 10 ng cDNA samples per reaction were evaluated for the expression level of CRABPII using primers and comparative TaqMan™ Gene Expression Assay and TaqMan™ Fast Advanced Master (FAM) Mix (purchased from Applied Biosystems™) and run in a ViiA™ 7 Real Time PCR System (from Applied Biosystems™). Percent increases in CRABPII expression was calculated by converting the log2fold-change to a percentage increase using the following formula: Percent increase=100*(2^log2FC)-100.
(In general: Quantitative PCR measures a nucleic acid by following its amplification.)

In experiment [3] the test system is YAP/TAZ. Put plainly: Nuclear translocation assay to identify activators of YAP/TAZ bioactivity, fibroblasts on fibronectin micro-islands. The settings on record: for Mechano-transduction Activation (% Increase): 20 uM, 2 hours, YAP/TAZ nucleus/cytoplasm ratio normalised to control and LPA; for Induction of mechano-transduction signaling (translocation of cytoplasmic YAP/TAZ into the nucleus), in words: over the vehicle DMSO. As for the experimental part:
Cellular localization of YAP can be regulated by the rigidity of the substrate or ECM that cells are attached to, or the degree to which cells can spread on a substrate. Thus in vitro models can be useful to engineer low states of YAP activity.
Briefly, primary human dermal fibroblasts were seeded on microprinted substrate islands (<1000 μm^2) of fibronectin and incubated overnight at 37° C., 5% CO2 in a cell culture incubator. Next, fibroblasts were treated with materials described in Table 1. After the treatment period of 2 hours, cells were fixed and stained: nuclei were stained with Hoechst dye and YAP/TAZ was stained with a mouse antibody to YAP/TAZ (Santa Cruz Biotechnology), followed by the secondary fluorescently tagged antibody (donkey anti-mouse AlexaFluor 488). Microscopic images were acquired and YAP/TAZ fluorescent signal measured in the cytoplasm and nucleus of each cell. The fluorescence intensity measured in the nucleus is divided by the one measured in the cytoplasm to obtain the YAP/TAZ ratio readout as described below Table 1.

Experiment [4] concerns FN1. Put plainly: mRNA gene expression in dermal fibroblasts on 2 kPa hydrogel (RNA-seq). Conditions: vs. Vehicle. The method, then:
as §1
(§2) The RNA was isolated using the Qiagen RNeasy mini kit following the manufacturer's instruction with the following modifications—
(§3) 700 ul of RLT buffer plus beta-mercaptoethanol was added to each well immediately after removing the plate from the freezer. The plate was placed on an orbital shaker at 500 revolution per minute up for 15 minutes while the buffer thawed and extracted the cells. The cell lysate was transfer to Qiashedders and pass the Qiashedder to disrupt the cells. The recovery lysate was mixed with an equal volume of 70% Ethanol, 30% water. The RNA was purified on the minicolumns including the DNase step to remove DNA contamination. The RNA samples were quantitated on a NanoDrop 800 and quantity access on an Agilent Bio-analyzer. An aliquot of the RNA samples was reverse transcribed in cDNA then diluted to 5 ng/ul of input RNA. The cDNA samples were evaluated for the expression level of select markers using comparative Taqman analysis using 2 ul of the cDNA per reaction. The level of RNA expression was compared using the delta delta Cycle threshold (ddCt) method. Aliquot of the RNAs were also submitted to Lexogen (Vienna, Austria) for RNA-seq analysis.
(§4) Shown in Table 5 is the average percent increase in mRNA expression for genes involved in extracellular matrix production following ORG treatment relative to the vehicle control, along with the Benjamini-Hochberg adjusted p-values (adj.p.value) calculated by converting the average log2fold-change (calculated using DESeq2) to a percentage increase using the following formula: Percent increase=100*(2^log2FC)-100.

Experiment [5] relates to COL5A1. The experiment is described as above. The settings on record: vs. Vehicle. As for the experimental part: as §1, §2, §3, §4
Experiment [6] concerns COL1A1. Described as above. The settings on record: vs. Vehicle. The method, then: as §1, §2, §3, §4
In experiment [7] the test system is HAS2. The experiment is described as above. Conditions: vs. Vehicle. As for the experimental part:
as §1, §2, §3, §4

Experiment [8] concerns ELN. The experiment is described as above. Conditions: vs. Vehicle. As for the experimental part:
as §1, §2, §3, §4

Experiment [9] has as its system COL3A1. Described as above. Conditions: vs. Vehicle. The method, then:
as §1, §2, §3, §4

Experiment [10] concerns FBN1. Described as above. Conditions: vs. Vehicle. The method, then:
as §1, §2, §3, §4

The test system of experiment [11] is COL4A1. The description is as above. Conditions: vs. Vehicle. The method, then:
as §1, §2, §3, §4

Setting [12] is: Experiment 1, 50 μM, vehicle control 1933.3.
[13] abbreviates: Experiment 2, 50 μM, vehicle control 2240.5.

With `CCCCCCCC/C=C\CCCCCCCC(=O)NCC(=O)O` [Oleoyl Glycinate], the Procollagen in [1] (setting [12]) amounted to 2474.9 ng/mL. Moreover, the “Effect on procollagen-I synthesis in human dermal fibroblasts, in words” value (“Effect on procollagen-I synthesis” below) in experiment [1] is recorded as “do not exhibit such a pronounced effect”.
As to `CCC(=O)OC/C=C(C)/C=C/C=C(C)/C=C/C1=C(C)CCCC1(C)C` [retinyl propionate], in experiment [2], the “Effect on CRABPII gene expression, in words” value is recorded as “robust increase in CRABPII gene expression”. Further, the “Percent Increase in CRABPII Gene Expression vs Vehicle” value in experiment [2] (10 μM) was found to be 138%. In addition, the Procollagen in [1] (Experiment 3, 10 μM, vehicle control 1301.9) was 1452.0 ng/mL. Also, the “Effect on procollagen-I synthesis” value in experiment [1] is “do not exhibit such a pronounced effect”.
Turning to `CCCCCCCCCCCCCCC(=O)OCC(O)CO` (racemic) [1-Pentadecanoyl-rac-glycerol], in experiment [3], the “Mechano-transduction Activation (% Increase)” value was 25 +/− 26% and the “Induction of mechano-transduction signaling (translocation of cytoplasmic YAP/TAZ into the nucleus), in words” value was “do not induce mechano-transduction”.
With `CCCCCCCC/C=C\CCCCCCCC(=O)OC[C@@H](O)COP(=O)([O-])O.[Na+]` [LPA, Lysophosphatidic acid], the Procollagen in [1] (Experiment 1, 30 μM, vehicle control 1933.3) worked out at 3532.6 ng/mL. The same molecule registered a Procollagen in [1] (Experiment 2, 30 μM, vehicle control 2240.5) of 3381.3 ng/mL. Besides, in experiment [3], the “Mechano-transduction Activation (% Increase)” value is 100 +/− 1 ** % and the “Induction of mechano-transduction signaling (translocation of cytoplasmic YAP/TAZ into the nucleus), in words” value is recorded as “induces mechano-transduction signaling”.
Molecule `C=CCc1ccc(O)c(-c2cc(CC=C)ccc2O)c1` [Magnolol] yielded a Procollagen in experiment [1] (setting [13]) of 2512.8 ng/mL. In experiment [1], the “Effect on procollagen-I synthesis” value is “do not exhibit such a pronounced effect”.
For the molecule `CCCCCCCC/C=C\CCCCCCCC(=O)OCC(O)CO` (racemic) [1-oleoyl-rac-glycerol], in [3], the “Mechano-transduction Activation (% Increase)” value is 17 +/− 10 ** % and the “Induction of mechano-transduction signaling (translocation of cytoplasmic YAP/TAZ into the nucleus), in words” value is “significantly induces mechano-transduction signaling”.
For the molecule `CCCCCCCCCCCCCCCCCC(=O)OCC(O)CO` (racemic) [1-Stearoyl-rac-glycerol], in experiment [3], the “Mechano-transduction Activation (% Increase)” value was 6 +/− 7% and the “Induction of mechano-transduction signaling (translocation of cytoplasmic YAP/TAZ into the nucleus), in words” value is on record as “do not induce mechano-transduction”.
Consider oleoyl-rac-glycerol [ORG (Monomuls ®)], for which the “FN1 mRNA expression, Percent Increase” value in [4] was determined as 15.49%. For the same molecule, the “COL5A1 mRNA expression, Percent Increase” value in experiment [5] amounted to 10.73%. In experiment [6], the “COL1A1 mRNA expression, Percent Increase” value came out at 21.16%. Moreover, the “HAS2 mRNA expression, Percent Increase” value in [7] is 164.75%. Further, in experiment [8], the “ELN mRNA expression, Percent Increase” value came to 18.49%. Moreover, in [9], the “COL3A1 mRNA expression, Percent Increase” value is recorded as 15.35%. Further, the “FBN1 mRNA expression, Percent Increase” value in experiment [10] is 12.36%. For the same molecule, the “COL4A1 mRNA expression, Percent Increase” value in experiment [11] stood at 20.36%. Besides, the “Effect on CRABPII gene expression, in words” value in experiment [2] is listed as “more modest increase”. In [2] (50 μM), the “Percent Increase in CRABPII Gene Expression vs Vehicle” value came to 54%. The Procollagen came to 3084.2 ng/mL in [1] (setting [12]); 3256.8 ng/mL in [1] (setting [13]); 2275.4 ng/mL in [1] (Experiment 3, 50 μM, vehicle control 1301.9). Besides, the “Effect on procollagen-I synthesis” value in [1] is reported as “promotes the synthesis of procollagen-I”.
As for `CC(C)c1cc2c(cc1O)[C@@]1(C)CC[C@H](O)C(C)(C)[C@@H]1CC2` [Hinokiol], the Procollagen in experiment [1] (setting [12]) stood at 1946.1 ng/mL; in experiment [1] (setting [13]) it was 1843.5 ng/mL. In addition, in experiment [1], the “Effect on procollagen-I synthesis” value was “do not exhibit such a pronounced effect”.
